Measurements as given in patent US20050048508A1, “Trehalose receptor and method for detecting trehalose with the same” (KABUSHIKI KAISHA HAYASHIBARA SEIBUTSU KAGAKU KENKYUJO, priority 2002, published 2005).

Molecular target: T1, T1R2 and T1R3 with G protein α-subunits (α15 and α16/Z chimeric protein) (Mus musculus, UniProt Q925D8+Q925I4, E350G/G527D/I706N/P352R/R175Q)
T1 construct: expressed in transfected cells; host or cells: 293 cells, RCB 1637 (human embryonic kidney)
T1 sequence (Q925I4 20-843 R175Q/E350G/P352R/G527D): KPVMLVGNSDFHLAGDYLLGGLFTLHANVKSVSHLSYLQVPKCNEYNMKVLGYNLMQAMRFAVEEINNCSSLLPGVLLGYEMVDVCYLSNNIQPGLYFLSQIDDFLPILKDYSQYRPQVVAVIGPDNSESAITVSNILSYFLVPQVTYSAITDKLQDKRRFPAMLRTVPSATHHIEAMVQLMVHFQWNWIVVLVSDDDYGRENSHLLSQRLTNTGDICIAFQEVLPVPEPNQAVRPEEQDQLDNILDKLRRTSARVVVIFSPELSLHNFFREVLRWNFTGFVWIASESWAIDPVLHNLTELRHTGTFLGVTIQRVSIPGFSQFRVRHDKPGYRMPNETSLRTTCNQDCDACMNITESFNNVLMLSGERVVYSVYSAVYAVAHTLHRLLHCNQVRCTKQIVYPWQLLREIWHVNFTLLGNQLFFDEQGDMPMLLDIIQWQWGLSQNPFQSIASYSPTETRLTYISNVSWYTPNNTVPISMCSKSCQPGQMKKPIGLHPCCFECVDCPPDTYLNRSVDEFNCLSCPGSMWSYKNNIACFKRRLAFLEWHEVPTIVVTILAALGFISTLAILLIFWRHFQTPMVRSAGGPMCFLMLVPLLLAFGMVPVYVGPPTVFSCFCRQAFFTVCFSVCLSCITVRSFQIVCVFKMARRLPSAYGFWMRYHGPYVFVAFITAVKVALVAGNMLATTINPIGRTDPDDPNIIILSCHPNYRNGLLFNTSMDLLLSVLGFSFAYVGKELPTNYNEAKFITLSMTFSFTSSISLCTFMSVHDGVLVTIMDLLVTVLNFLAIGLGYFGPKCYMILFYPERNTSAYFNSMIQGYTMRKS
T1 sequence (Q925D8 21-858 I706N): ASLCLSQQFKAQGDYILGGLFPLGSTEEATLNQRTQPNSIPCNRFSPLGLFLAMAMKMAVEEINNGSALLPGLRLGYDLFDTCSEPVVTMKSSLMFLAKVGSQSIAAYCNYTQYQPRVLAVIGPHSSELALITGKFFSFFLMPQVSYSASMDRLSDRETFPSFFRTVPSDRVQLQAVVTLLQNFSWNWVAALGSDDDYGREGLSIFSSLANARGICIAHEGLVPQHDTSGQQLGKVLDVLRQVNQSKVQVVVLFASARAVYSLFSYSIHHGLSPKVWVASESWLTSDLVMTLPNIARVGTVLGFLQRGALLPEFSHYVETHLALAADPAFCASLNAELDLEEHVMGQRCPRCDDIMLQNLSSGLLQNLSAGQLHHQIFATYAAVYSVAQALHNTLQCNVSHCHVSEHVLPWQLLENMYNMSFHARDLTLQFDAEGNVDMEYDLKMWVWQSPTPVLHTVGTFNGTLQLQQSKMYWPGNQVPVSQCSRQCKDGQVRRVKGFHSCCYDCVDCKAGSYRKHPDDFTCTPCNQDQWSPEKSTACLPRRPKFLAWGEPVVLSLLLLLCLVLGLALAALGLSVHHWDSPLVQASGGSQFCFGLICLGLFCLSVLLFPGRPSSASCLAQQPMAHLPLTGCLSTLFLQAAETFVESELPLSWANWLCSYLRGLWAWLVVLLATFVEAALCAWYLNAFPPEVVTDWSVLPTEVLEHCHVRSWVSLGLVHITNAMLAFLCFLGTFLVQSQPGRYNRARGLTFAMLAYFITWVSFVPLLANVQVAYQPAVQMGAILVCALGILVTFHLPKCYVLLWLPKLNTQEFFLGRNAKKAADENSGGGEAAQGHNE
Experiment: Intracellular calcium ion assay, 293 cells coexpressing G protein α-subunits, T1R2 and T1R3
Format: cell-based
Conditions: 293 cells: T1R2 + T1R3 + G protein α-subunits, 0.67 ml of 1 M saccharide solution added to 2 ml cell suspension, FLUO-4 AM
Procedure: The coexpression vector for the G protein α-subunit α15 and the G protein α16/Z chimeric protein (hereinafter designated as “G protein α-subunits”) obtained in Example 1-3 was gene transferred to 293 cells, RCB 1637, a human embryonic kidney cell line, available from the Riken Bioresource Center, Ibaraki, Japan, by conventional lipofection. The gene transferred cells were suspended in Dulbecco's Modified Eagle's Medium (D-MEM) supplemented with 1 mg/L of “PUROMYCIN”, a trade mane of puromycin commercialized by Edge Biosystems, MD, USA, and 10% (v/v) of fetal calf serum to give a cell density of 2×10^6 cells/ml and cultured in a plastic petri dish for cell culture. After 10 to 14 days of incubation, a puromycin-resistant cell colony was collected and confirmed its production of the G protein α-subunit proteins with an index of their mRNA level by conventional RT-PCR. Thus, a cell line capable of expressing the G protein α-subunit proteins was established. To the cells were gene transferred an expression vector for the sweet taste receptor protein T1R1, T1R2, or T1R3 in Example 2-2; or a coexpression vector for a pair of T1R1 and T1R2, T1R1 and T1R3, or T1R2 and T1R3 by conventional lipofection. The resulting cells were suspended in D-MEM supplemented with 1 mg/L of “PUROMYCIN”, 500 mg/L of “GENETICIN”, and 10% (v/v) of fetal calf serum and cultured in a plastic petri dish for cell culture. […]
The captioned reactivity test was conducted according to a conventional intracellular calcium ion assay: 293 Cells prepared in Example 3, capable of coexpressing the G protein α-subunits and the sweet taste receptor(s), were cultured in a plastic petri dish for cell culture until reaching its confluent phase. […] Two milliliters of the resultant cell suspension was injected into a glass cuvette, commercialized by Hitachi, Ltd., Tokyo, Japan, and analyzed on “HITACHI 650-40”, a fluorescence spectrophotometer commercialized by Hitachi, Ltd., Tokyo, Japan. […]

Influx of calcium ion | Influx of calcium ion (listed as sucrose) | SMILES
Positive | detected | OC[C@H]1O[C@@](CO)(O[C@H]2O[C@H](CO)[C@@H](O)[C@H](O)[C@H]2O)[C@@H](O)[C@@H]1O [Sucrose, reference compound]
Positive | – | OC[C@H]1O[C@H](O[C@H]2O[C@H](CO)[C@@H](O)[C@H](O)[C@H]2O)[C@H](O)[C@@H](O)[C@@H]1O [Trehalose]
